Data from BindingDB's records for patent US12390472 (Evopoint Biosciences, 2025).

Molecular target: Histone-lysine N-methyltransferase EZH2 [Y641N] (UniProt Q15910, Y641N)
Assay: Test on EZH2 (Y641F) and EZH2 (Y641N) Inhibitory Activities
Method: ProceduresCompounds at different concentrations were dissolved in 100% DMSO and transferred to test plates, and the final concentration of DMSO was 1%. Enzyme solution and substrate SAM solution were prepared with 1-fold reaction buffer (optimized Tris buffer). 5 uL of enzyme solution was added to the test plate and wells only added with 5 uL of reaction buffer were used as negative control wells. […] 5 uL of receptor solution was added and the plate was incubated away from light at room temperature for 60 min. 10 uL of donor solution was added and the plate was incubated away from light at room temperature for 30 min. The endpoint values were read on the Envision and the IC50 was calculated.Data CalculationData were fitted by GraphPad Prism 5 software and inhibition rate was calculated according to equation (1)Inh %=(Max−Signal)/(Max−Min)×100 (1)IC50 was calculated using equation (2)Y=Bottom+(Top−Bottom)/(1+10^((Log IC 50 −X)×Hill Slope))Y: inhibition rate; X: concentration of the compound

Sequence of Histone-lysine N-methyltransferase EZH2 [Y641N] (Q15910 whole entry Y641N): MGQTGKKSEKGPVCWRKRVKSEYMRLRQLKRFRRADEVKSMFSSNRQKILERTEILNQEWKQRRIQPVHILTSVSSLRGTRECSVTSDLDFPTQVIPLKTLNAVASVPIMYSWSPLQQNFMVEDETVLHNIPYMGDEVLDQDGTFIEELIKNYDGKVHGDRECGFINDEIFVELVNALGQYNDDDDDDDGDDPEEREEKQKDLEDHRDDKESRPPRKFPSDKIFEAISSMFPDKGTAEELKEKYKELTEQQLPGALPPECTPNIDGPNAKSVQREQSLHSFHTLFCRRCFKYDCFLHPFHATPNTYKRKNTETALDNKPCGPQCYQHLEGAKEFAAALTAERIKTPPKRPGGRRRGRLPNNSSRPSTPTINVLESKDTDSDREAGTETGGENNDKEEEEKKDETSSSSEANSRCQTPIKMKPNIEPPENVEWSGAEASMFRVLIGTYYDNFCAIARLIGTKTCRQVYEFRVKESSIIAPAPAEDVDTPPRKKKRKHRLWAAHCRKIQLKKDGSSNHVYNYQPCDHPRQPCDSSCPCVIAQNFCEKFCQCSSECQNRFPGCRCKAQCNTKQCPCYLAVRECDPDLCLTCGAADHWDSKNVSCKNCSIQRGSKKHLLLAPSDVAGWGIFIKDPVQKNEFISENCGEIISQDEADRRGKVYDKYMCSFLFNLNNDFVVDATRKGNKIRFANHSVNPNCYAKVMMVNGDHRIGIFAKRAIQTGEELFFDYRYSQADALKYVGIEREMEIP

With `CCN(c1cc(O[C@H]2C[C@H](N3CCCCC3)C2)cc(C(=O)NCc2c(CO)cc(C)[nH]c2=O)c1C)C1CCC(F)(F)CC1` [US12390472, Example 95] the IC50 was 3.1 nM.
